Assay results taken from patent publication US20250025451A1, “TREATMENT OF CANCER WITH KDM4 INHIBITORS” (Celgene Corporation, priority 2021, published 2025).
pEC50, pIC50: −log10 of the molar value.

Tested on: 301 cancer cell lines from different tumor types
Experiment: 2D cell viability inhibition assay, broad cancer cell line panel (OncoPanel; CellTiter-Glo)
Format: cell-based
Set-up: key to Emax: % of DMSO control (minimum response over dose range); AUC: scale not given here
Conditions: for AUC / Emax: 168 hours; for Emax: in % (unit assumed)
Procedure: In a larger screening study, compound 1 was evaluated across a broad cancer cell line panel (OncoPanel; HD Biosciences) composed of 301 cancer cell lines from different tumor types.
2D cell viability inhibition assays were performed in multiwell plates seeded with cells from the panel. After seeding, the plates were cultured overnight in a humidified incubator at 37° C. to promote adherence. Assays were initiated in individual wells by adding either DMSO as a vehicle control, growth media as a blank, or serially diluted compound 1 (10 μM to 0.0005 μM with 1:3 serial dilution). Cultures were incubated for 168 hours after which the number of viable cells in each test well was assessed using the CellTiter-Glo® Luminescent Cell Viability Assay. Luminescence readouts were performed using an EnVision® Multilabel Reader and the compound 1 readouts were normalized to the DMSO control readouts, expressed as a percent of the control. Outliers were flagged out by visual inspection. Percent of control was plotted against the corresponding compound 1 concentration and the absolute IC50 value was determined using four-parameter logistic non-linear regression as the concentration where inhibition was 50% of the control. […] Emax was recorded as the minimum in y with the compound dose range. […] The sensitive/moderate/resistant calls for each cell line was determined by visually inspecting the resulting clustering dendrogram. All the analyses were done in R Core Team.

[1] = 168 h, HUH28 (biliary tract, NS)
[2] = 168 h, KG1 (haematopoietic and lymphoid tissue, acute myeloid leukaemia)
[3] = 168 h, KURAMOCHI (ovary, undifferentiated carcinoma)
[4] = 168 h, NMCG1 (central nervous system, NS)
[5] = 168 h, T24 (urinary tract, transitional cell carcinoma)
[6] = 168 h, TE1 (oesophagus, squamous cell carcinoma)
[7] = 168 h, TE8 (oesophagus, squamous cell carcinoma)
[8] = BT20 (breast, ductal carcinoma)
[9] = BT474 (breast, ductal carcinoma)
[10] = C2BBE1 (large intestine, adenocarcinoma)
[11] = CAL27 (upper aerodigestive tract, squamous cell carcinoma)
[12] = CALU1 (lung, squamous cell carcinoma)
[13] = CAPAN2 (pancreas, ductal carcinoma)
[14] = CCFSTTG1 (central nervous system, astrocytoma)
[15] = DAOY (central nervous system, NS)
[16] = DMS53 (lung, small cell carcinoma)
[17] = HCC38 (breast, ductal carcinoma)
[18] = HCC1419 (breast, ductal carcinoma)
[19] = HCC1937 (breast, ductal carcinoma)
[20] = Homo sapiens, A204, 168 h, A204 (soft tissue, NS)
[21] = Homo sapiens, BT-20, 168 h, BT20 (breast, ductal carcinoma)
[22] = Homo sapiens, BT-474, 168 h, BT474 (breast, ductal carcinoma)
[23] = Homo sapiens, C2BBe1, 168 h, C2BBE1 (large intestine, adenocarcinoma)
[24] = Homo sapiens, CAL-27, 168 h, CAL27 (upper aerodigestive tract, squamous cell carcinoma)
[25] = Homo sapiens, CCF-STTG1, 168 h, CCFSTTG1 (central nervous system, astrocytoma)
[26] = Homo sapiens, Calu-1, 168 h, CALU1 (lung, squamous cell carcinoma)
[27] = Homo sapiens, Calu-3, 168 h, CALU3 (lung, adenocarcinoma)
[28] = Homo sapiens, Capan-2, 168 h, CAPAN2 (pancreas, ductal carcinoma)
[29] = Homo sapiens, DMS-53, 168 h, DMS53 (lung, small cell carcinoma)
[30] = Homo sapiens, Daoy, 168 h, DAOY (central nervous system, NS)
[31] = Homo sapiens, G-361, 168 h, G361 (skin, NS)
[32] = Homo sapiens, HCC38, 168 h, HCC38 (breast, ductal carcinoma)
[33] = Homo sapiens, HCC827, 168 h, HCC827 (lung, adenocarcinoma)
[34] = Homo sapiens, HCC1419, 168 h, HCC1419 (breast, ductal carcinoma)
[35] = Homo sapiens, HCC1428, 168 h, HCC1428 (breast, NS)
[36] = Homo sapiens, HCC1937, 168 h, HCC1937 (breast, ductal carcinoma)
[37] = Homo sapiens, HT-144, 168 h, HT144 (skin, NS)
[38] = Homo sapiens, Hs 695T, 168 h, HS695T (skin, NS)
[39] = Homo sapiens, KYSE-70, 168 h, KYSE70 (oesophagus, squamous cell carcinoma)
[40] = Homo sapiens, Kasumi 1, 168 h, KASUMI1 (haematopoietic and lymphoid tissue, acute myeloid leukaemia)
[41] = Homo sapiens, Lu-99, 168 h, LU99 (lung, large cell carcinoma)
[42] = Homo sapiens, MDA-MB-157, 168 h, MDAMB157 (breast, ductal carcinoma)
[43] = Homo sapiens, MDA-MB-175-VII, 168 h, MDAMB 175 VII (breast, ductal carcinoma)
[44] = Homo sapiens, MDA-MB-231, 168 h, MDAMB231 (breast, NS)
[45] = Homo sapiens, MDA-MB-361, 168 h, MDAMB361 (breast, NS)
[46] = Homo sapiens, MDA-MB-415, 168 h, MDAMB415 (breast, NS)
[47] = Homo sapiens, MDA-MB-436, 168 h, MDAMB436 (breast, NS)
[48] = Homo sapiens, MDA-MB-468, 168 h, MDAMB468 (breast, NS)
[49] = Homo sapiens, Malme-3M, 168 h, MALME3M (skin, NS)
[50] = Homo sapiens, MeWo, 168 h, MEWO (skin, NS)
[51] = Homo sapiens, NCI-H441, 168 h, NCIH441 (lung, adenocarcinoma)
[52] = Homo sapiens, NCI-H596, 168 h, NCIH596 (lung, mixed adenosquamous carcinoma)
[53] = Homo sapiens, NCI-H1395, 168 h, NCIH1395 (lung, adenocarcinoma)
[54] = Homo sapiens, NCI-H1563, 168 h, NCIH1563 (lung, adenocarcinoma)
[55] = Homo sapiens, NCI-H1573, 168 h, NCIH1573 (lung, adenocarcinoma)

CC(C)c1ccc(N(C)c2ccc3c(c2)OCC[C@H]3CNc2cnccc2C(=O)O)cc1 [Compound 1, 3-({[(4R)-7-{methyl[4-(propan-2-yl)phenyl]amino}-3,4-dihydro-2H-1-benzopyran-4-yl]methyl}amino)pyridine-4-carboxylic acid]
pEC50 (168 h, HS688AT (skin, NS)): ≤ 5.00
pIC50 (168 h, HS688AT (skin, NS)): ≤ 5.00
pEC50 (168 h, HS739T (breast, NS)): ≤ 5.00
pIC50 (168 h, HS739T (breast, NS)): ≤ 5.00
pEC50 (168 h, HS839T (skin, NS)): ≤ 5.00
pIC50 (168 h, HS839T (skin, NS)): ≤ 5.00
pEC50 (168 h, HS852T (skin, NS)): ≤ 5.00
pIC50 (168 h, HS852T (skin, NS)): ≤ 5.00
pEC50 [1]: ≤ 5.00
pIC50 [1]: ≤ 5.00
pEC50 [2]: ≤ 5.00
pIC50 [2]: ≤ 5.00
pEC50 [3]: ≤ 5.00
pIC50 [3]: ≤ 5.00
pEC50 [4]: ≤ 5.00
pIC50 [4]: ≤ 5.00
pEC50 (168 h, SKMEL31 (skin, NS)): ≤ 5.00
pIC50 (168 h, SKMEL31 (skin, NS)): ≤ 5.00
pEC50 [5]: ≤ 5.00
pIC50 [5]: ≤ 5.00
pEC50 [6]: ≤ 5.00
pIC50 [6]: ≤ 5.00
pEC50 [7]: ≤ 5.00
pIC50 [7]: ≤ 5.00
AUC (A204 (soft tissue, NS)): 0.7136
Emax (A204 (soft tissue, NS)): 58.91
AUC [8]: 0.9117
Emax [8]: 78.79
AUC [9]: 0.7206
Emax [9]: 53.88
AUC [10]: 0.8303
Emax [10]: 59.34
AUC [11]: 0.8335
Emax [11]: 74.68
AUC [12]: 1.217
Emax [12]: 118.4694
AUC (CALU3 (lung, adenocarcinoma)): 0.7277
Emax (CALU3 (lung, adenocarcinoma)): 50.88
AUC [13]: 0.8808
Emax [13]: 75.02
AUC [14]: 0.879
Emax [14]: 78.9
AUC [15]: 0.9684
Emax [15]: 83.4
AUC [16]: 0.7426
Emax [16]: 49.07
AUC (G361 (skin, NS)): 1.044
Emax (G361 (skin, NS)): 89.52
AUC [17]: 0.9864
Emax [17]: 93.61
AUC (HCC827 (lung, adenocarcinoma)): 0.8814
Emax (HCC827 (lung, adenocarcinoma)): 74.84
AUC [18]: 0.7201
Emax [18]: 52.42
AUC (HCC1428 (breast, NS)): 0.7818
Emax (HCC1428 (breast, NS)): 59.9889
AUC [19]: 0.9094
Emax [19]: 80.9493
AUC (HS688AT (skin, NS)): 1.105
Emax (HS688AT (skin, NS)): 98.47
AUC (HS695T (skin, NS)): 0.9238
Emax (HS695T (skin, NS)): 74.11
AUC (HS739T (breast, NS)): 0.8686
Emax (HS739T (breast, NS)): 78.35
AUC (HS839T (skin, NS)): 1.097
Emax (HS839T (skin, NS)): 101.2434
AUC (HS852T (skin, NS)): 0.883
Emax (HS852T (skin, NS)): 78.51
AUC (HT144 (skin, NS)): 0.8912
Emax (HT144 (skin, NS)): 81.61
AUC (HUH28 (biliary tract, NS)): 0.9862
Emax (HUH28 (biliary tract, NS)): 92.15
pEC50 [20]: ≤ 5.00
pIC50 [20]: ≤ 5.00
pEC50 [21]: ≤ 5.00
pIC50 [21]: ≤ 5.00
pEC50 [22]: ≤ 5.00
pIC50 [22]: ≤ 5.00
pEC50 [23]: ≤ 5.00
pIC50 [23]: ≤ 5.00
pEC50 [24]: ≤ 5.00
pIC50 [24]: ≤ 5.00
pEC50 [25]: ≤ 5.00
pIC50 [25]: ≤ 5.00
pEC50 [26]: ≤ 5.00
pIC50 [26]: ≤ 5.00
pEC50 [27]: ≤ 5.00
pIC50 [27]: ≤ 5.00
pEC50 [28]: ≤ 5.00
pIC50 [28]: ≤ 5.00
pEC50 [29]: ≤ 5.00
pIC50 [29]: ≤ 5.00
pEC50 [30]: ≤ 5.00
pIC50 [30]: ≤ 5.00
pEC50 [31]: ≤ 5.00
pIC50 [31]: ≤ 5.00
pEC50 [32]: ≤ 5.00
pIC50 [32]: ≤ 5.00
pEC50 [33]: ≤ 5.00
pIC50 [33]: ≤ 5.00
pEC50 [34]: ≤ 5.00
pIC50 [34]: ≤ 5.00
pEC50 [35]: ≤ 5.00
pIC50 [35]: ≤ 5.00
pEC50 [36]: ≤ 5.00
pIC50 [36]: ≤ 5.00
pEC50 [37]: ≤ 5.00
pIC50 [37]: ≤ 5.00
pEC50 [38]: ≤ 5.00
pIC50 [38]: ≤ 5.00
pEC50 [39]: ≤ 5.00
pIC50 [39]: ≤ 5.00
pEC50 [40]: ≤ 5.00
pIC50 [40]: ≤ 5.00
pEC50 [41]: ≤ 5.00
pIC50 [41]: ≤ 5.00
pEC50 [42]: ≤ 5.00
pIC50 [42]: ≤ 5.00
pEC50 [43]: ≤ 5.00
pIC50 [43]: ≤ 5.00
pEC50 [44]: ≤ 5.00
pIC50 [44]: ≤ 5.00
pEC50 [45]: ≤ 5.00
pIC50 [45]: ≤ 5.00
pEC50 [46]: ≤ 5.00
pIC50 [46]: ≤ 5.00
pEC50 [47]: ≤ 5.00
pIC50 [47]: ≤ 5.00
pEC50 [48]: ≤ 5.00
pIC50 [48]: ≤ 5.00
pEC50 [49]: ≤ 5.00
pIC50 [49]: ≤ 5.00
pEC50 [50]: ≤ 5.00
pIC50 [50]: ≤ 5.00
pEC50 [51]: ≤ 5.00
pIC50 [51]: ≤ 5.00
pEC50 [52]: ≤ 5.00
pIC50 [52]: ≤ 5.00
pEC50 [53]: ≤ 5.00
pIC50 [53]: ≤ 5.00
pEC50 [54]: ≤ 5.00
pIC50 [54]: ≤ 5.00
pEC50 [55]: ≤ 5.00
pIC50 [55]: ≤ 5.00
